# In patent US6362230B1, “Sulphonamide derivatives” (Eli Lilly and Company, priority 1998, dated 2002):
# Biological target: T1, human GluR4B receptor (Homo sapiens, UniProt P48058)
# T1 construct: expressed in transfected cells
# Experiment: potentiation of agonist-induced excitability of human GluR4B receptor expressed in HEK 293 cells
# Type: cell-based
# From the text: The ability of compounds of formula I or formula XVII to potentiate glutamate receptor-mediated response may be determined using fluorescent calcium indicator dyes (Molecular Probes, Eugene, Oreg., Fluo-3) and by measuring glutamate-evoked […] of calcium into GluR4 transfected HEK293 cells, as described in more detail below.
# In one test, 96 well plates containing confluent monolayers of HEK cells stably expressing human GluR4B (obtained as described in European Patent Application Publication Number EP-A1-583917) are prepared. The tissue culture medium in the wells is then discarded, and the wells are each washed once with 200 μl of buffer (glucose, 10 mM, sodium chloride, 138 mM, magnesium chloride, 1 mM, potassium chloride, 5 mM, calcium chloride, 5 mM, N-[2-hydroxyethyl]piperazine-N-[2-ethanesulfonic acid], 10 mM, to pH 7.1 to 7.3). […]
# Each test is then performed as follows. […] A second fluorescent reading is taken after 5 minutes incubation. 15 μl of 400 μM glutamate solution is then added to each well (final glutamate concentration 100 μM), and a third reading is taken. The activities of test compounds and cyclothiazide solutions are determined by subtracting the second from the third reading (fluorescence due to addition of glutamate in the presence or absence of test compound or cyclothiazide) and are expressed relative to enhance fluorescence produced by 100 μM cyclothiazide.
# T1 sequence (P48058 21-902): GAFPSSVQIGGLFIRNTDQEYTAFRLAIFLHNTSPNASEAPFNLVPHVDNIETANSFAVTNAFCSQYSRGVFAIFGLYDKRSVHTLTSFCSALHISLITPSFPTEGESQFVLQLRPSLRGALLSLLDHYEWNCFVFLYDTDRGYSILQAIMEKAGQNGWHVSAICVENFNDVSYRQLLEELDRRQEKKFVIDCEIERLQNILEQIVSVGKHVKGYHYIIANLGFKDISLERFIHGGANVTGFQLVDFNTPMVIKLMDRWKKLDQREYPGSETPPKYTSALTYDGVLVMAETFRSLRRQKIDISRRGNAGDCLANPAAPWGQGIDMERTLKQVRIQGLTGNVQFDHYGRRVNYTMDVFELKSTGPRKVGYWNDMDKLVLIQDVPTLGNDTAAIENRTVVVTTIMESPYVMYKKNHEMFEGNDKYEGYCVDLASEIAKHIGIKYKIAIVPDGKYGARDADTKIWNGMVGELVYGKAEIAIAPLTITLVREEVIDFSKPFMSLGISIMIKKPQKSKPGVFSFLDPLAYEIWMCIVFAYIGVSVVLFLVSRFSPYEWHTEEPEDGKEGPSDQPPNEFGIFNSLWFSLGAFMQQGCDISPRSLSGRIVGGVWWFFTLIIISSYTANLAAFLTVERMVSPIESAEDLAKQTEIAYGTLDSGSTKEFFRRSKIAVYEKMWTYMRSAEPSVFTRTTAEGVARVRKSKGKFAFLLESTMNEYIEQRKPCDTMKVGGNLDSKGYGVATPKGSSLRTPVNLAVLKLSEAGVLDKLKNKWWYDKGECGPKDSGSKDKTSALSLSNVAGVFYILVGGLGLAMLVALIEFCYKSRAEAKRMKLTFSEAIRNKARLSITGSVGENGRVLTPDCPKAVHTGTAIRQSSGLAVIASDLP
smiles,measurement,value
NS(=O)(=O)c1cc2c(cc1Cl)NC(C1CC3C=CC1C3)NS2(=O)=O (stereo not shown) [cyclothiazide],potentiation of agonist-induced excitability of human GluR4B receptor,potentiate agonist-induced excitability
